Results taken from US20130296427A1, “NERAMEXANE FOR THE TREATMENT OR PREVENTION OF TINNITUS RELATED WITH STRESS OR ACUTE HEARING LOSS” (MERZ PHARMA GmbH & CO. KGaA, priority 2011, published 2013).

Test system: subjects with tinnitus caused by acute hearing loss, stress and other reasons
Assay: Two double-blind, randomized, placebo-controlled 17-week studies of neramexane mesylate in tinnitus; change in TBF-12 total score
Type: in vivo, human
Details: FAS-LOCF; for Change in the TBF-12 total score from baseline to Week 17/EOT, mean (SD): neramexane mesylate 50 or 75 mg/d, 17 weeks; for LSmean [ner − plac], estimated difference Neramexane − Placebo in change of TBF-12 total score, adjusted for covariates from ANCOVA: Week 17/EOT, negative = superior to placebo
Experimental: The objective was to assess the efficacy of neramexane as a treatment for tinnitus. The primary objectives of these two independent 17 weeks double-blind, randomized placebo-controlled studies were to compare the efficacy, tolerability and safety of neramexane mesylate at two different, weight-adapted dosages (50 or 75 mg/d) with placebo in subjects with tinnitus caused acute hearing loss, stress and other reasons.
In two independent, double-blind, multicenter, randomized, placebo-controlled, parallel-group studies, the efficacy of neramexane in subjects suffering from tinnitus caused by acute hearing loss, stress and other reasons were assessed.
In both studies, subjects were treated for 17 weeks with neramexane or placebo including a four-resp. five-week up-titration period, depending on study drug dose.
Patients with a target daily dose of 50 mg neramexane mesylate (<90 kg body weight) were to reach steady state after four weeks, patients with a target total daily dose of 75 mg neramexane mesylate 90 kg body weight) were to reach steady state after five weeks of treatment. For patients who experienced dose limiting adverse events with the 75 mg dose, the dosage was reduced by switching the patient to 50 mg/day. Patients unable to tolerate a minimum dosage of 50 mg/day discontinued.
Patients' eligibility for the studies was evaluated via a check of inclusion/exclusion criteria. The subject completed a Tinnitus-Beeinträchtigungs-Fragebogen (TBF-12=Tinnitus Handicap Inventory (THI-12)) (i.e., a 12-item modified and validated version (Greimel K V et al., Tinnitus-Beeinträchtigungs-Fragebogen (TBF-12). Manual. Frankfurt am Main: Swets & Zeitlinger B.V.; 2000) of the 25-item Tinnitus Handicap Inventory or THI (Newman C W, et al. Development of the Tinnitus Handicap Inventory. Arch Otolaryngol Head Neck Surg 1996; 122(2): 143-148; Newman C W, et al. Psychometric adequacy of the Tinnitus Handicap Inventory (THI) for evaluating treatment outcome. J Am Acad Audiol 1998; 9(2): 153-160.)). The TBF-12 items can be grouped in 2 factorial scores: an emotional-cognitive and a functional-communicational factor. At Visit 1 patients also completed a Tinnitus Rating Scale (TRS, Likert scores on Tinnitus Loudness, Tinnitus Impact on Life, and Tinnitus Annoyance), and the Hospital Anxiety and Depression Scale Audiology/psychoacoustic measurements were performed unless results from previous examinations performed no more than one year prior to Screening were available.
Neramexane mesylate immediate release tablets (12.5 mg and 25 mg, the manufacture thereof being disclosed in WO 2009/033649, whose respective content is incorporated herein by reference) and matching placebo tablets are administered as film coated tablets.
Primary Outcome • The change in TBF-12 total score from baseline (Visit 2) to the endpoint visit (Visit 7, i.e. Week 17 or end of treatment) was the primary efficacy endpoint in these studies.
All efficacy analyses were performed on the full analysis set (FAS) using the last-observation-carried-forward (LOCF) approach. For sensitivity purposes an analysis of the per-protocol set and of observed cases was performed additionally. All statistical tests used for testing the primary efficacy (confirmatory testing) and secondary efficacy criteria (exploratory), and all other statistical tests used for exploratory analyses were two-sided hypothesis tests performed at the 5% significance level. For all variables standard descriptive statistics were calculated.
Change from baseline (Visit 2) to Week 17 in TBF-12 total score was analyzed using an ANCOVA model with treatment group, gender and country as factors and baseline TBF-12 total score as covariate.

With `CC1(C)CC(C)(C)CC(C)(N)C1` [Neramexane, 1-amino-1,3,3,5,5-pentamethylcyclohexane] the “Change in the TBF-12 total score from baseline to Week 17/EOT, mean (SD)” value (shortened to “Change in the TBF-12 total score … (SD)”) (tinnitus caused by acute hearing loss, N=34) was 34/−3.1 ± 5.0, the “LSmean [ner − plac], estimated difference Neramexane − Placebo in change of TBF-12 total score, adjusted for covariates from ANCOVA” value (tinnitus caused by acute hearing loss, P-value 0.0162) was −3.9 and the “Change in the TBF-12 total score … (SD)” value (tinnitus caused by other reasons, N=323) was 323/−2.4 ± 4.1. The “LSmean [ner − plac], estimated difference Neramexane − Placebo in change of TBF-12 total score, adjusted for covariates from ANCOVA” value (tinnitus caused by other reasons, P-value 0.5969) was 0.2, the “Change in the TBF-12 total score … (SD)” value (tinnitus caused by stress, N=41) was 41/−3.4 ± 4.2 and the “LSmean [ner − plac], estimated difference Neramexane − Placebo in change of TBF-12 total score, adjusted for covariates from ANCOVA” value (tinnitus caused by stress, P-value 0.0094) was −2.3.
